Assay results reported in patent US10287294B2, “Compounds for use in treating or preventing cancerous diseases” (BIOMEDICAL RESEARCH FOUNDATION OF THE ACADEMY OF ATHENS, priority 2015, dated 2019).
Values belong to the molecule of their own block, whether it stands above or below them.

How the values were obtained:
[1] = system: human prostate cancer xenografts; conditions: two weeks in vivo treatment with 20 or 30 mg/kg; cited from earlier work
TGR-1 cells = assay: MTT cell viability assay, TGR-1 cells (Myc+/+); format: cell-based; conditions: Rattus norvegicus, TGR1, 72 h; for IC50: Myc+/+ cells, MTT day 3, logit-log linear regression
From the text: (§1) To evaluate the in vitro activity of the compound having the formula (II) (Amy22), the sibling cell lines TGR-1 and H015.19 were used. The TGR-1 cells are a subclone of the Rat-1 fibroblastic cell line with intact Myc (Myc^+/+), whereas the H015.19 cells are Myc^−/− derivatives of the TGR-1 cells (Mateyak et al., 1997). The two sibling cell lines thus differ only in the presence or absence of Myc, thereby allowing to determine not only the activity of the tested compound in Myc-positive cancer cells, but also in cells not expressing Myc offering an indication of the specificity of the tested compound.
(§2) The TGR-1 and H015.19 cells were grown in DMEM supplemented with 10% FBS. Equal numbers of cells were seeded in multiple wells of 24-well plates at low density (<20% confluence at day 0), and either DMSO or DMSO-dissolved Amy22 (various concentrations) was added to the medium (final concentration of DMSO: 0.1%). Cell viability (sextuplicates) was measured on day 3 by using a standard MTT (Thiazolyl Blue Tetrazolium Bromide) colorimetric assay (Mosmann, 1983). Half-maximal inhibitory concentrations (IC50) were determined using a log it-log plot and linear regression of the data (SigmaPlot software; Systat Software, Inc., San Jose, Calif., USA), as shown in FIG. 1 and Table 1. The measured data were plotted on the log it-log plot for linear regression of cell viability data (average values from 5 independent experiments in each case), in order to calculate the Amy22 IC50 for the sibling cell lines that differ only in the presence or absence of Myc (TGR-1 and H015.19 cells, respectively). The IC50 for H015.19 cells was calculated by extrapolation.

[2] = system: pancreatic ductal adenocarcinoma (PDA); assay: Micro PET/CT imaging of Pdx1-Cre/KRAS*A mouse treated with Amy22; format: in vivo
Experimental: PET/CT images were acquired of a Pdx1-Cre/KRAS*A mouse at the beginning and end of treatment (one month) of pancreatic ductal adenocarcinoma (PDA) with the Amy22 compound (cf. FIG. 4; a representative out of three independent experiments is shown). Dosing solutions of 20 mg/ml Amy22 in 0.5% carboxymethyl cellulose (CMC) were used for daily administration per os (0.15 ml per animal, dose 150 mg/kg) for 30 days. The diminished uptake of ^18F-FDG by remnants of PDA is evident and measured by the standardized uptake values (SUV values) that were 2.87 at the beginning and 1.5 at the end of the treatment. The white arrows indicate the anatomical sites of pancreata. High-level concentration of ^18F-FDG in the urinary bladder (excretion of the tracer) and also in the heart (yellow arrows) is noted.

[3] = MTT cell viability assay, H015.19 cells (Myc-/-); format: cell-based, rat; conditions: rat, H015.19 cells (Myc-/- derivatives of TGR-1), day 3, MTT, average ± S.E.M
From the text: as §1, §2

H015.19 cells = assay: MTT cell viability assay, H015.19 cells (Myc-/-); format: cell-based, rat; conditions: Rattus norvegicus, 72 h, Myc-/- cells
From the text: as §1, §2

[4] = system: human pancreatic ductal adenocarcinoma cell line MiaPaCa2 xenografts; assay: Amy22 treatment of MiaPaCa2 xenografts in NOD/SCID mice; format: in vivo; conditions: Amy22 150 mg/kg for two weeks
Experimental: For transplantation, eight-week old NOD/SCID mice were anesthetized using a steady flow of a mixture of isofluorane gas (4%) and oxygen and inoculated subcutaneously into their lateral flanks with 10^6 cancer cells and monitored daily until the tumors became palpable (tumor volume ˜100 mm^3). The mice were then divided randomly into two groups for Amy22 (150 mg/kg) or vehicle administration for a period of two weeks. Average weights±S.E.M (n=4 in each case) are indicated (p<0.001 and <0.05 for MiaPaCa2 and MMTV-Myc, respectively). […] FIG. 3 illustrates the gross appearance of surgically recovered Amy22-treated or untreated (control) xenografts.

[5] = Blood concentrations of Amy22 after oral gavage to mice (LC-MS/MS, non-compartmental analysis); format: in vivo, mouse
Experimental: Animals at the age of 10 weeks were fasted overnight and weighed before dosing (average weight=21.6 g, n=6 male C57BL/6N). Dosing solutions of 20 mg/ml Amy22 in 0.5% carboxymethyl cellulose (CMC) were used for administration per os (0.15 ml per animal, dose 140 mg/kg). A serial tail bleeding protocol was used for the collection of blood samples. Blood samples (10 μl) were collected at selected time points (0.5, 1, 2, 4, 8, 24 hours) in tubes containing 40 μl sodium citrate (0.1 M, pH 4.5) and stored at −80° C. until sample extraction. Samples were prepared for quantification by protein precipitation and evaporation. Amy22 was quantified by LC-MS/MS analysis.
Pharmacokinetic Parameters Using Non-Compartmental Analysis

[6] = system: pancreatic ductal adenocarcinoma (PDA); assay: Post-mortem gamma counting of 18F-FDG uptake in Pdx1-Cre/KRAS*A mice after monotherapy or combination with Amy22; format: in vivo, mouse; conditions: one month; Gemcitabine 300 mg/kg IP weekly; in combination Amy22 150 mg/kg per os daily
Experimental: The representative PET/CT images shown were acquired for Pdx1-Cre/KRAS*A mice at the beginning and end of treatment (one month) of pancreatic ductal adenocarcinoma (PDA) using either Gemcitabine alone or a combination of Gemcitabine and Amy22. The scheme used for the treatment was as follows: weekly IP administration of Gemcitabine (300 mg/kg) in both cases and daily administration of AMY22 per os (150 mg/kg) in the combination treatment (cf. FIG. 5).
In some scans, a high-level concentration of ^18F-FDG in the urinary bladder (excretion of the tracer) could be observed. High uptake of radioactivity (unrelated to the presence of tumor) was also noted in the heart.

[7] = mouse, whole blood, po, blood, male C57BL/6N mice, 140 mg/kg per os in 0.5% CMC
[8] = MTT day 3, logit-log linear regression

Compound: CCc1ccc(C=C2SC(=S)NC2=O)cc1 [10058-F4, [Z,E]-5-[4-ethylbenzylidine]-2-thioxothiazolidin-4-one]
- inhibition of tumor growth [1]: no significant inhibition of tumor growth

Compound: O=C(Nc1c(C(=O)O)cnn1-c1ccccc1)c1cc2nc(-c3ccco3)cc(C(F)(F)Cl)n2n1 [Amy22]
- viability at 0.1 µM (TGR-1 cells; Amy22 0.1 μM, day 3, MTT, average ± S.E.M): 84.4 ± 5%
- viability at 0.5 µM (TGR-1 cells; Amy22 0.5 μM, day 3, MTT, average ± S.E.M): 73.7 ± 4%
- viability at 1 µM (TGR-1 cells; Amy22 1 μM, day 3, MTT, average ± S.E.M): 67.3 ± 4.1%
- viability at 5 µM (TGR-1 cells; Amy22 5 μM, day 3, MTT, average ± S.E.M): 54.5 ± 4.6%
- viability at 10 µM (TGR-1 cells; Amy22 10 μM, day 3, MTT, average ± S.E.M): 46 ± 2.5%
- viability at 25 µM (TGR-1 cells; Amy22 25 μM, day 3, MTT, average ± S.E.M): 39.9 ± 2.2%
- viability at 50 µM (TGR-1 cells; Amy22 50 μM, day 3, MTT, average ± S.E.M): 26.8 ± 4.8%
- viability at 100 µM (TGR-1 cells; Amy22 100 μM, day 3, MTT, average ± S.E.M): 19 ± 3.7%
- IC50 (TGR-1 cells): 5.8 µM
- survival and condition of treated mice ([2]; after 150 mg/kg per os daily for 30 days): still alive 3 months post-treatment with no evident signs of cachexia
- standardized uptake value (SUV) of 18F-FDG ([2]; at the beginning of treatment): 2.87
- standardized uptake value (SUV) of 18F-FDG ([2]; at the end of treatment, 150 mg/kg per os daily for 30 days): 1.5
- viability at 3 days, 0.1 μM ([3]; Amy22 0.1 μM): 86.3 ± 5.9%
- viability at 3 days, 0.5 μM ([3]; Amy22 0.5 μM): 84.7 ± 5.7%
- viability at 3 days, 1 μM ([3]; Amy22 1 μM): 80 ± 4.1%
- viability at 3 days, 5 μM ([3]; Amy22 5 μM): 75.3 ± 8.8%
- viability at 3 days, 10 μM ([3]; Amy22 10 μM): 74.6 ± 4.9%
- viability at 3 days, 25 μM ([3]; Amy22 25 μM): 70.8 ± 5.1%
- viability at 3 days, 50 μM ([3]; Amy22 50 μM): 67.8 ± 4%
- viability at 3 days, 100 μM ([3]; Amy22 100 μM): 61.1 ± 3.8%
- IC50 (H015.19 cells; MTT day 3, calculated by extrapolation): 1800 µM
- apoptosis in xenografts [4]: induced apoptosis
- proliferation index (Ki67 immunohistochemistry) ([4]; MiaPaCa2 xenografts, controls 69.9±5.1%): 15.0±3.3%
- Elimination rate constant (ke) ([5]; blood, male C57BL/6N mice, 140 mg/kg per os in 0.5% CMC): 0.2 ± 0.1 h⁻¹
- AUC(0-inf) [5, 7]: 35.4 ± 9.5 µM·h
- Cmax [5, 7]: 6.2 ± 1.1 µM
- Tmax [5, 7]: 1.5 ± 0.5 h
- AUC(0-t) ([5]; mouse, whole blood, po, blood, male C57BL/6N mice, 140 mg/kg per os in 0.5% CMC, read-out: AUC0-24): 33.6 ± 8.3 µM·h
- blood concentrations ([5]; up to at least 8 hr post dose, oral 140 mg/kg): > 1 micro molar

Compound: Nc1ccn([C@@H]2O[C@H](CO)[C@@H](O)C2(F)F)c(=O)n1 [Gemcitabine]
- remaining tumor as % of untreated PDA tumors (18F-FDG uptake, gamma counting post-mortem) [6]: 31%

Second part, led by results:

- IC50 (H015.19 cells; [8]): 13.4 µM
Compound: O=C(Nc1ccc(F)cc1)c1cc2nc(-c3ccco3)cc(C(F)(F)Cl)n2n1 [formula (III), reference compound]
- IC50 (TGR-1 cells): 6.5 µM

- IC50 (H015.19 cells; [8]): 58.8 µM
Compound: O=C(c1cc2nc(-c3ccco3)cc(C(F)(F)Cl)n2n1)N1CCNCC1 [formula (IV), reference compound]
- IC50 (TGR-1 cells): 12.3 µM
